Test results reported in US10308686B2, “Gamma-AApeptides with potent and broad-spectrum antimicrobial activity” (priority 2012, dated 2019).
Converted amounts (≈) assume the structure as drawn. Where two headings read alike, the source gives them in different places. No end group written: not given here.

What was measured:
[1] = tested on: methicillin-resistant S. aureus (ATCC 33592); conditions: for MIC, Gram positive S. aureus: Table 7
[2] = tested on: K. pneumoniae (ATCC 13383)
[3] = tested on: vancomycin-resistant E. faecalis (ATCC 700802); conditions: for MIC, Gram positive E. faecalis: Table 7
[4] = tested on: methicillin-resistant S. aureus (MRSA, USA100 lineage); conditions: for MIC, MRSA USA100: Table 3
[5] = tested on: multi-drug resistant P. aeruginosa ATCC 27853; conditions: ATCC 27853
[6] = tested on: multi-drug resistant S. epidermidis (RP62A); conditions: for MIC, Gram positive S. epidermidis: Table 7
S. aureus ATCC 33592 = assay type: cell-based; conditions: serial passage at half-MIC
[7] = tested on: human red blood cells (hRBC's); experiment: Hemolysis assay; assay type: cell-based; conditions: for Hemolysis HC10 / Hemolysis HC50: red cells of human
Summary of the method: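 Washed human RBCs (K2 EDTA) as 5% v/v suspension in PBS, mixed 1:1 with two-fold serial peptide dilutions (250–1.6 μg/ml, or 1 mg/ml–6.3 μg/ml for lipidated γ-AApeptides) in PBS; 1 h at 37 °C. Supernatant OD 360 nm, normalised to PBS (0%) and 0.2% Triton-X-100 (100%); H50 = concentration giving 50% hemolysis.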

[8] = tested on: Gram-positive and Gram-negative bacteria and the fungus C. albicans; experiment: Antimicrobial assays, whole panel (statements in words); assay type: cell-based
[9] = tested on: human red blood cells (hRBC's); conditions: cited from earlier work

Compound | MIC, K. pneumoniae (causing pneumonia) [2] | MIC, E. faecalis (vancomycin-resistant) ([3]; Table 3) | MIC, MRSA USA100 [4] | MIC, P. aeruginosa [5] | MIC, Fungi C. albicans (C. albicans (ATCC 10231); ATCC 10231) | MIC, E. coli (E. coli (JM109)) | MIC, S. epidermidis (multi-drug resistant) ([6]; Table 3) | MIC, B. subtilis (B. subtilis (BR151)) | Hemolysis (H50) [7] | MIC, Gram positive S. aureus [1] | MIC, Gram negative K. pneumoniae [2] | antimicrobial activity against the tested panel, in words [8] | MIC, Gram positive E. faecalis [3] | MIC, Gram negative P. aeruginosa [5] | MIC, Fungi, C. albicans (C. albicans (ATCC 10231); ATCC 10231) | MIC, Gram negative E. coli (E. coli (JM109)) | MIC, Gram positive S. epidermidis [6] | MIC, Gram positive B. subtilis (B. subtilis (BR151)) | Hemolysis HC10 [7] | Hemolysis HC50 [7] | other results
CCCCCCCCCCCCCCCC(=O)N[C@@H](C)CN(CC(=O)N[C@@H](C)CN(CC(=O)N[C@@H](CC(C)C)CN(CC(=O)N[C@@H](CC(C)C)CN(CC(=O)N[C@@H](CC(C)C)CN(CC(N)=O)C(=O)CCCN)C(=O)CCCN)C(=O)CCCN)C(C)=O)C(C)=O [γAA2] | 5 µg/mL (≈ 3.87 µM) | 5 µg/mL (≈ 3.87 µM) | 10 µg/mL (≈ 7.74 µM) | 25 to 50 µg/mL | 5 µg/mL (≈ 3.87 µM) | 2.5 µg/mL (≈ 1.94 µM) | 4 µg/mL (≈ 3.1 µM) | 2.5 µg/mL (≈ 1.94 µM) | >500 µg/mL | – | – | – | – | – | – | – | – | – | – | – | MIC, B. anthracis (lethal bioweapon) (B. anthracis; Table 3): 5 µg/mL (≈ 3.87 µM); MIC, S. aureus (methicillin-resistant) ([1]; Table 3): 4 µg/mL (≈ 3.1 µM); development of resistance (change in MIC over 17 passages), in words (S. aureus ATCC 33592; 17 days): did not cause resistance
CCn1cc(C(=O)O)c(=O)c2cc(F)c(N3CCNCC3)cc21 [norfloxacin, reference compound] | – | – | – | – | – | – | – | – | – | – | – | – | – | – | – | – | – | – | – | – | passages after which the MIC started to increase (S. aureus ATCC 33592): three
CCCCCCCCCCCC(=O)N[C@@H](CCCCN)CN(CC(N)=O)C(=O)CCCN [Sequence 1] | – | – | – | – | – | – | – | – | – | >50 µg/mL | >50 µg/mL | not active toward any microorganism | >50 µg/mL | >50 µg/mL | >50 µg/mL | >50 µg/mL | >50 µg/mL | >50 µg/mL | 400 µg/mL | > 500 µg/mL | –
CC(C)C[C@@H](CN(CC(=O)N[C@@H](CCCCN)CN(CC(N)=O)C(=O)CCc1ccccc1)C(=O)CCc1ccccc1)NC(=O)CN(C[C@H](CCCCN)NC(=O)CN(C[C@H](CCCCN)NC(=O)CN(C[C@H](CC(C)C)NC(=O)CN(C[C@H](CCCCN)NC(=O)CN(C[C@@H](N)CCCCN)C(=O)CCc1ccccc1)C(=O)CCc1ccccc1)C(=O)CCc1ccccc1)C(=O)CCc1ccccc1)C(=O)CCc1ccccc1 [γ5] | 5 µg/mL (≈ 2.37 µM) | 3.1 to 6.3 µg/mL | 5 µg/mL (≈ 2.37 µM) | 25 to 50 µg/mL | 5 to 10 µg/mL | 2.5 to 5 µg/mL | 3.1 to 6.3 µg/mL | 2 µg/mL (≈ 0.947 µM) | 300 µg/mL | 5 µg/mL (≈ 2.37 µM) | 5 µg/mL (≈ 2.37 µM) | – | 5 µg/mL (≈ 2.37 µM) | >50 µg/mL | 8 µg/mL (≈ 3.79 µM) | 3 µg/mL (≈ 1.42 µM) | 5 µg/mL (≈ 2.37 µM) | 2 µg/mL (≈ 0.947 µM) | 75 µg/mL | 300 µg/mL | MIC, B. anthracis (lethal bioweapon) (B. anthracis; Table 1): 5 µg/mL (≈ 2.37 µM); MIC, S. aureus (methicillin-resistant) ([1]; Table 1): 5 µg/mL (≈ 2.37 µM); MIC, E. faecalis (vancomycin-resistant) ([3]; Table 1): 3.1 to 6.25 µg/mL; MIC, MRSA USA100 (leading hospital-associated strain) ([4]; Table 1): 5 µg/mL (≈ 2.37 µM); MIC, Fungi C. albicans (C. albicans (ATCC 10231); ATCC 10231, 48 h): 5 to 10 µg/mL; MIC, S. epidermidis (multi-drug resistant) ([6]; Table 1): 3.1 to 6.25 µg/mL; Hemolysis H10 [7]: 75 µg/mL; Hemolysis H50 [7]: 300 µg/mL
GIGKFLKKAKKFGKAFVKILKK-NH2 [Pexiganan, pexiganan] | – | – | – | – | – | – | – | – | – | – | – | – | – | – | – | – | – | – | – | – | Hemolysis (H50) [9]: >500 µg/mL; Hemolysis H10 [9]: 181 µg/mL; Hemolysis H50 [9]: 495 µg/mL
KFKFKFKFKFKFKF-NH2 [pl, reference compound] | >100 µg/mL | – | – | – | – | >100 µg/mL | – | >100 µg/mL | >500 µg/mL | – | – | does not show any antimicrobial activity at all | – | – | – | – | – | – | – | – | MIC, S. aureus (methicillin-resistant) ([1]; Table 1): >100 µg/mL; MIC, E. faecalis (vancomycin-resistant) ([3]; Table 1): >100 µg/mL; MIC, Fungi C. albicans (C. albicans (ATCC 10231); ATCC 10231, 48 h): >100 µg/mL; MIC, S. epidermidis (multi-drug resistant) ([6]; Table 1): >100 µg/mL
